Source: patent US8461348B2, “Heterocyclic derivative and use thereof” (Takeda Pharmaceutical Company Limited, priority 2008, dated 2013)

tested on: male SHR; assay: Measurement of hypotensive action in vivo in SHR; design: species or system rat; details: single oral administration, 10 mg/kg, 5 hr after administration
Description: Animal used was male SHR (32- to 40-week-old, SHR/Izm, Japan SLC, Inc.). Two days before drug administration, a cannula (SP10+SP45, Natsume Seisakusho Co., Ltd.) filled with heparin physiological saline (200 U/mL, Ajinomoto Pharma Co., Ltd.) was inserted from the femoral artery under anesthesia with pentobarbital Na (50 mg/kg, i.p., Kyoritsu Seiyaku Corporation) and dwelled. The other end of the cannula was subcutaneously passed and exposed on the back of the neck where it was fixed. After a recovery period, the artery dwelling cannula was connected to a pressure transducer (DTX Plus DT-XXAD, Japan Becton Dickinson) and output on a pen recorder (linear recorder WR3320-4µL, Graphtec Corporation) via a polygraph (AP-641G, Nihon Kohden Co.), and the blood pressure waveform was recorded. The heart rate was calculated from the blood pressure waveform. After stable blood pressure was obtained, a solvent or a drug was orally administered once, and average blood pressure and average heart rate were measured over time. The blood pressure was measured under fasting, and the rats were reared under free ingestion of feed and water except the blood pressure measurement day. The drug was suspended in 0.5% methylcellulose aqueous solution. The administration dose was 2 mL/kg.

Row | SMILES | hypotension after 5 hr from the administration [mmHg]
1 | Cc1sc(-c2cccc(C(F)(F)F)c2F)nc1Cn1cc(C(=O)O)cn1 [Example 80, 1-({2-[2-fluoro-3-(trifluoromethyl)phenyl]-5-methyl-1,3-thiazol-4-yl}methyl)-1H-pyrazole-4-carboxylic acid] | 14.7
2 | Cc1sc(-c2cc(Cl)cc(C(F)(F)F)c2)nc1Cn1cc(C(=O)O)cn1 [Example 83, 1-({2-[3-chloro-5-(trifluoromethyl)phenyl]-5-methyl-1,3-thiazol-4-yl}methyl)-1H-pyrazole-4-carboxylic acid] | 14.5

same assay, conditions: single oral administration, 30 mg/kg, 5 hr after administration

Row | SMILES | hypotension after 5 hr from the administration [mmHg]
3 | O=C(O)c1cnn(Cc2nc(-c3cccc(C(F)(F)F)c3)cs2)c1 [Example 1, 1-({4-[3-(trifluoromethyl)phenyl]-1,3-thiazol-2-yl}methyl)-1H-pyrazole-4-carboxylic acid] | 15.5
4 | O=C(O)c1cnn(Cc2nc(-c3cccc(C(F)(F)F)c3F)cs2)c1 [Example 52, 1-({4-[2-fluoro-3-(trifluoromethyl)phenyl]-1,3-thiazol-2-yl}methyl)-1H-pyrazole-4-carboxylic acid] | 29.4

biological target: T1, Purified sGC (Homo sapiens, UniProt Q02153); assay: Measurement of sGC activation in vitro (cGMP production by purified sGC); type: biochemical; details: 20 min; test compound diluted to 30 μM, 10 μL/well plus equal volumes of sGC and GTP; 20 min at room temperature; cGMP without compound (1% DMSO) = 100%; read-out: cGMP amount (%) in experiment system
T1 sequence (Q02153 1-619): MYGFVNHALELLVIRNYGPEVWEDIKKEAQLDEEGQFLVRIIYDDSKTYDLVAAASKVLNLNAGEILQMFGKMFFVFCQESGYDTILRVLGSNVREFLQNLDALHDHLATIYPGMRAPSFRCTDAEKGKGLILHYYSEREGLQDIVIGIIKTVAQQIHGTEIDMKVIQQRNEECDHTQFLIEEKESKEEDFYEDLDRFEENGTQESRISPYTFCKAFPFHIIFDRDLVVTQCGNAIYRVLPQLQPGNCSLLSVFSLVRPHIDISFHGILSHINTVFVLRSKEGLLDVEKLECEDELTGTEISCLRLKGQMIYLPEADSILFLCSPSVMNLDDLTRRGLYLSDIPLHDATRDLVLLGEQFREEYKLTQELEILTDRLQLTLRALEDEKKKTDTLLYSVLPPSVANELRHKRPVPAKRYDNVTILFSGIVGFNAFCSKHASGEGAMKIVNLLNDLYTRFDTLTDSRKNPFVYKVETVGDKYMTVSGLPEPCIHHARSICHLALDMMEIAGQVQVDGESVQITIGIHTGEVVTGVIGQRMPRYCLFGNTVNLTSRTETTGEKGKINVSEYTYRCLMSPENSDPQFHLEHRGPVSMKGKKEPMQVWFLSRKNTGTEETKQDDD
T1 sequence (Q02108 1-690 partner): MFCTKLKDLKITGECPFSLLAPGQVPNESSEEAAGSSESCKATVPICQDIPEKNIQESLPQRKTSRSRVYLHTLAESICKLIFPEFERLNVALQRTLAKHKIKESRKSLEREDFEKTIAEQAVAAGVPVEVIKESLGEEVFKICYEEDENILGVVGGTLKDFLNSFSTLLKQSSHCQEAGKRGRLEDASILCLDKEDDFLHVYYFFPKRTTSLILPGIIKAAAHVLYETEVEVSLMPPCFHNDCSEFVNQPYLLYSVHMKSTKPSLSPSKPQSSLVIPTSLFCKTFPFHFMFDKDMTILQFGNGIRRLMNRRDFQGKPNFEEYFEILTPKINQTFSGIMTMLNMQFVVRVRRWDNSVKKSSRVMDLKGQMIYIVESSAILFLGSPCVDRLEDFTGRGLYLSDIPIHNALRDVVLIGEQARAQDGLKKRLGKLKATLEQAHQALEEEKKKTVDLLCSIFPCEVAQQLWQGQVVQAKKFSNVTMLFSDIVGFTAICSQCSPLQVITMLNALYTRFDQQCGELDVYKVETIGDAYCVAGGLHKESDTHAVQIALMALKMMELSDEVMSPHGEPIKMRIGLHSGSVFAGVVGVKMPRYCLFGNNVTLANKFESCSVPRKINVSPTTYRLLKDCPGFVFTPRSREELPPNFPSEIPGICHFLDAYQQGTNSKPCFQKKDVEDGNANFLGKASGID
Description: To evaluate sGC activation of each compound, the following in vitro tests were performed.
A test compound was diluted with a reaction buffer (50 mM HEPES, 5 mM MgCl2, 2 mM DTT, 0.5 mM IBMX (isobutylmethylxanthine), 0.01% BSA) to 30 μM (3% DMSO), and dispensed to a 384 well plate (manufactured by REMP) at 10 μL/well. Purified sGC was diluted with the reaction buffer to 240 ng/mL and added to the plate at 10 μL/well. Then, 120 μM GTP prepared with the reaction buffer was added to the reaction plate at 10 μL/well to initiate an enzyme reaction. After stirring at room temperature for 20 min to allow reaction, 125 mM Na2CO3 was added at 15 μL/well to quench the reaction. Thereafter, 125 mM Zn Acetate (zinc acetate) was added at 15 μL/well to allow precipitation of unreacted GTP. Then, the amount of the resulting cGMP contained in the supernatant was quantified using a CatchPoint cGMP assay kit (molecular devices). The method followed the protocol attached to the assay kit. For detection, Super Signal ELISA Femto (Thermo) was used, and the amount of luminescence was measured with ARVO (Perkinelmer). The sGC activity with addition of the compound was calculated using the amount of cGMP produced without addition of the compound (in the presence of 1% DMSO) as 100%.

Row | activity at 10 µM [%] | SMILES
5 | > 1000 | O=C(O)c1cnn(Cc2nc(-c3cccc(C(F)(F)F)c3)cs2)c1 [Example 1, 1-({4-[3-(trifluoromethyl)phenyl]-1,3-thiazol-2-yl}methyl)-1H-pyrazole-4-carboxylic acid]
6 | 420 | Cc1cc(C(=O)O)nn1Cc1nc(-c2ccc(Cl)c(Cl)c2)cs1 [Example 6, 1-{[4-(3,4-dichlorophenyl)-1,3-thiazol-2-yl]methyl}-5-methyl-1H-pyrazole-3-carboxylic acid]
7 | > 1000 | Cc1c(C(=O)O)cnn1Cc1nc(-c2cccc(C(F)(F)F)c2)cs1 [Example 13, 5-methyl-1-({4-[3-(trifluoromethyl)phenyl]-1,3-thiazol-2-yl}methyl)-1H-pyrazole-4-carboxylic acid]
8 | 503 | FC(F)(F)c1cccc(-c2csc(Cn3cc(-c4nn[nH]n4)cn3)n2)c1 [Example 18, 5-[1-({4-[3-(trifluoromethyl)phenyl]-1,3-thiazol-2-yl}methyl)-1H-pyrazol-4-yl]-2H-tetrazole]
9 | > 1000 | O=C(O)c1cnn(Cc2csc(-c3cccc(C(F)(F)F)c3)n2)c1 [Example 21, 1-({2-[3-(trifluoromethyl)phenyl]-1,3-thiazol-4-yl}methyl)-1H-pyrazole-4-carboxylic acid]
10 | 996 | O=C(O)c1cnn(Cc2ncc(-c3cccc(C(F)(F)F)c3)s2)c1 [Example 23, 1-({5-[3-(trifluoromethyl)phenyl]-1,3-thiazol-2-yl}methyl)-1H-pyrazole-4-carboxylic acid]
11 | > 1000 | O=C(O)c1cnn(Cc2nc(-c3cccc(C(F)(F)F)c3F)cs2)c1 [Example 52, 1-({4-[2-fluoro-3-(trifluoromethyl)phenyl]-1,3-thiazol-2-yl}methyl)-1H-pyrazole-4-carboxylic acid]
12 | > 1000 | Cc1sc(-c2cccc(C(F)(F)F)c2F)nc1Cn1cc(C(=O)O)cn1 [Example 80, 1-({2-[2-fluoro-3-(trifluoromethyl)phenyl]-5-methyl-1,3-thiazol-4-yl}methyl)-1H-pyrazole-4-carboxylic acid]
13 | > 1000 | Cc1sc(-c2cc(Cl)cc(C(F)(F)F)c2)nc1Cn1cc(C(=O)O)cn1 [Example 83, 1-({2-[3-chloro-5-(trifluoromethyl)phenyl]-5-methyl-1,3-thiazol-4-yl}methyl)-1H-pyrazole-4-carboxylic acid]
14 | > 1000 | O=C(O)c1ccc(Cc2nc(-c3ccc(Cl)c(Cl)c3)cs2)cc1 [Example 179, 4-{[4-(3,4-dichlorophenyl)-1,3-thiazol-2-yl]methyl}benzoic acid]
15 | > 1000 | O=C(O)c1ccc(Cc2nc(-c3cccc(C(F)(F)F)c3F)cs2)cc1 [Example 186, 4-({4-[2-fluoro-3-(trifluoromethyl)phenyl]-1,3-thiazol-2-yl}methyl)benzoic acid]
16 | > 1000 | O=C(O)c1cnn(-c2nc(-c3ccc(Cl)c(Cl)c3)cs2)c1C(F)(F)F [Ref. Ex. 1, 1-[4-(3,4-dichlorophenyl)-1,3-thiazol-2-yl]-5-(trifluoromethyl)-1H-pyrazole-4-carboxylic acid]
17 | > 1000 | O=C(O)c1cnn(-c2nc(-c3ccc(Cl)s3)cs2)c1C(F)(F)F [Ref. Ex. 3, 1-[4-(5-chlorothiophen-2-yl)-1,3-thiazol-2-yl]-5-(trifluoromethyl)-1H-pyrazole-4-carboxylic acid]
18 | > 1000 | O=C(O)c1cnn(-c2nc(-c3ccc(Cl)c(Cl)c3)cs2)c1C1CC1 [Ref. Ex. 4, 5-cyclopropyl-1-[4-(3,4-dichlorophenyl)-1,3-thiazol-2-yl]-1H-pyrazole-4-carboxylic acid]
19 | > 1000 | Cc1c(C(=O)O)cnn1-c1nc(-c2ccc(Cl)c(Cl)c2)cs1 [Ref. Ex. 5, 1-[4-(3,4-dichlorophenyl)-1,3-thiazol-2-yl]-5-methyl-1H-pyrazole-4-carboxylic acid]
20 | > 1000 | O=C(O)c1cnn(-c2nc(-c3cccc(OC(F)(F)F)c3)cs2)c1C(F)(F)F [Ref. Ex. 10, 1-{4-[3-(trifluoromethoxy)phenyl]-1,3-thiazol-2-yl}-5-(trifluoromethyl)-1H-pyrazole-4-carboxylic acid]
21 | > 1000 | O=C(O)c1cnn(-c2nc(-c3ccc(Cl)c(Cl)c3)cs2)c1 [Ref. Ex. 17, 1-[4-(3,4-dichlorophenyl)-1,3-thiazol-2-yl]-1H-pyrazole-4-carboxylic acid]
22 | > 1000 | FC(F)(F)c1c(-c2nn[nH]n2)cnn1-c1nc(-c2ccc(Cl)c(Cl)c2)cs1 [Ref. Ex. 18, 5-{1-[4-(3,4-dichlorophenyl)-1,3-thiazol-2-yl]-5-(trifluoromethyl)-1H-pyrazol-4-yl}-2H-tetrazole]
23 | > 1000 | CS(=O)(=O)NC(=O)c1cnn(-c2nc(-c3ccc(Cl)c(Cl)c3)cs2)c1C(F)(F)F [Ref. Ex. 19, 1-[4-(3,4-dichlorophenyl)-1,3-thiazol-2-yl]-N-(methylsulfonyl)-5-(trifluoromethyl)-1H-pyrazole-4-carboxamide]
24 | > 1000 | O=C(Nc1cccc(Cl)c1)c1csc(-n2ncc(C(=O)O)c2C(F)(F)F)n1 [Ref. Ex. 20, 1-{4-[(3-chlorophenyl)carbamoyl]-1,3-thiazol-2-yl}-5-(trifluoromethyl)-1H-pyrazole-4-carboxylic acid]
25 | 766 | O=C(O)c1cnn(-c2nc(COc3ccc(Cl)c(Cl)c3)cs2)c1C(F)(F)F [Ref. Ex. 22, 1-[4-[(3,4-dichlorophenoxy)methyl]-1,3-thiazol-2-yl]-5-(trifluoromethyl)-1H-pyrazole-4-carboxylic acid]
26 | > 1000 | O=C(O)c1cnn(-c2nc(CCc3cccc(C(F)(F)F)c3)cs2)c1C(F)(F)F [Ref. Ex. 24, 5-(trifluoromethyl)-1-(4-{2-[3-(trifluoromethyl)phenyl]ethyl}-1,3-thiazol-2-yl)-1H-pyrazole-4-carboxylic acid]
27 | > 1000 | O=C(O)c1cnn(-c2nc(Cc3cccc(C(F)(F)F)c3)cs2)c1C(F)(F)F [Ref. Ex. 25, 5-(trifluoromethyl)-1-{4-[3-(trifluoromethyl)benzyl]-1,3-thiazol-2-yl}-1H-pyrazole-4-carboxylic acid]
